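Cultured in 96-well plates, cells were exposed to test compound for 48 hours across five concentrations. GI50 is the concentration that inhibits growth by half.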 Activity calls are given as the source filed them. Rule as the data show it: active = GI50 up to about 1.1 µM and inactive = higher.
How the values were obtained:
Test in all cases: DTP human tumour cell line panel, 48 h
[1] = tested on: OVCAR-5
[2] = tested on: HOP-62
[3] = tested on: A498
[4] = tested on: SW-620
[5] = tested on: EKVX
[6] = tested on: Hs-578T
[7] = tested on: SF-539
[8] = tested on: Malme-3M
[9] = tested on: DU-145
[10] = tested on: UACC-62
[11] = tested on: RPMI-8226
[12] = tested on: SK-MEL-5
[13] = tested on: M14
[14] = tested on: K562
[15] = tested on: T47D
[16] = tested on: U-251
[17] = tested on: KM12
[18] = tested on: MCF7
[19] = tested on: NCI-H226
[20] = tested on: SR

Structure (SMILES)	GI50 [1]	GI50 [2]	GI50 [3]	GI50 [4]	GI50 [5]	GI50 [6]	GI50 [7]	GI50 [8]	GI50 [9]	GI50 [10]	GI50 [11]	GI50 [12]	GI50 [13]	GI50 [14]	GI50 [15]	GI50 [16]	GI50 [17]	GI50 [18]	GI50 [19]	GI50 [20]
O=C(Nc1ccc(Cl)cc1)c1cc(S(=O)(=O)Nc2nc3cccnc3[nH]2)c(SSc2cc(Cl)c(C(=O)Nc3ccc(Cl)cc3)cc2S(=O)(=O)Nc2nc3cccnc3[nH]2)cc1Cl	> 100 µM (inactive)	> 100 µM (inactive)	> 100 µM (inactive)	> 100 µM (inactive)	> 100 µM (inactive)	> 100 µM (inactive)	> 100 µM (inactive)	> 100 µM (inactive)	> 100 µM (inactive)	> 100 µM (inactive)	> 100 µM (inactive)	> 100 µM (inactive)	> 100 µM (inactive)	3.86 µM (inactive)	> 100 µM (inactive)	> 100 µM (inactive)	> 100 µM (inactive)	> 100 µM (inactive)	> 100 µM (inactive)	
C[C@]12CC[C@H]3[C@@H](CC[C@]4(O)C[C@@H](O)CC[C@]34/C=N/O)[C@@]1(O)CC[C@@H]2C1=COC(=O)C1	0.318 µM (active)	0.102 µM (active)	0.0929 µM (active)	0.191 µM (active)	0.1 µM (active)	0.112 µM (active)	0.104 µM (active)	0.169 µM (active)	0.0637 µM (active)	0.303 µM (active)	0.258 µM (active)	0.0583 µM (active)	0.289 µM (active)	0.12 µM (active)	0.317 µM (active)	0.212 µM (active)	0.318 µM (active)		0.391 µM (active)	0.0504 µM (active)
CCOC(=O)OC1C(Br)C2CCC1(C)C2(C)C (stereo unspecified)	17.7 µM (inactive)	16.6 µM (inactive)		16.1 µM (inactive)	15.5 µM (inactive)	13.8 µM (inactive)	14.1 µM (inactive)	16.7 µM (inactive)	18.7 µM (inactive)	17.7 µM (inactive)	5.46 µM (inactive)	14.5 µM (inactive)	12.6 µM (inactive)	5.79 µM (inactive)	15.6 µM (inactive)	13 µM (inactive)	14 µM (inactive)	15 µM (inactive)	12 µM (inactive)	2.39 µM (inactive)
CC(=O)/C=C1/C(=O)C(CC(C)C)=C1CC(C)C	> 100 µM (inactive)	> 100 µM (inactive)	> 100 µM (inactive)	> 100 µM (inactive)	> 100 µM (inactive)	> 100 µM (inactive)	> 100 µM (inactive)	> 100 µM (inactive)	> 100 µM (inactive)	> 100 µM (inactive)		> 100 µM (inactive)	> 100 µM (inactive)		> 100 µM (inactive)	> 100 µM (inactive)	> 100 µM (inactive)	> 100 µM (inactive)	> 100 µM (inactive)	
O=C(OCC1CCCN2CCCCC12)c1cccnc1 (stereo unspecified)			> 100 µM (inactive)	> 100 µM (inactive)	> 100 µM (inactive)	> 100 µM (inactive)	> 100 µM (inactive)	> 100 µM (inactive)	> 100 µM (inactive)	> 100 µM (inactive)	> 100 µM (inactive)	> 100 µM (inactive)		> 100 µM (inactive)	> 100 µM (inactive)	> 100 µM (inactive)	> 100 µM (inactive)	> 100 µM (inactive)	> 100 µM (inactive)	
CC(=O)OCC1OC(On2ccccc2=S)C(OC(C)=O)C(OC(C)=O)C1OC(C)=O (stereo unspecified)	> 100 µM (inactive)	> 100 µM (inactive)	> 100 µM (inactive)	36.6 µM (inactive)	> 100 µM (inactive)	> 100 µM (inactive)	> 100 µM (inactive)	> 100 µM (inactive)	> 100 µM (inactive)	> 100 µM (inactive)		> 100 µM (inactive)	> 100 µM (inactive)	> 100 µM (inactive)	87.1 µM (inactive)	> 100 µM (inactive)	> 100 µM (inactive)	> 100 µM (inactive)		
COc1ccc2c(-c3csc(-c4c[nH]c5ccc(Br)cc45)n3)c[nH]c2c1	42.8 µM (inactive)	62.4 µM (inactive)	89.3 µM (inactive)	> 100 µM (inactive)	32.1 µM (inactive)	74.1 µM (inactive)		17.5 µM (inactive)	> 100 µM (inactive)	> 100 µM (inactive)	27.1 µM (inactive)	> 100 µM (inactive)	> 100 µM (inactive)	15.2 µM (inactive)	59.3 µM (inactive)	25.1 µM (inactive)	43.6 µM (inactive)	54.1 µM (inactive)	45.4 µM (inactive)	
COC(=O)C1C(=O)N(C)C(=O)N2CCCC12 (stereo unspecified)	> 100 µM (inactive)	> 100 µM (inactive)	> 100 µM (inactive)	> 100 µM (inactive)	> 100 µM (inactive)	> 100 µM (inactive)	> 100 µM (inactive)	> 100 µM (inactive)	> 100 µM (inactive)	> 100 µM (inactive)	> 100 µM (inactive)	> 100 µM (inactive)	> 100 µM (inactive)	> 100 µM (inactive)	> 100 µM (inactive)	> 100 µM (inactive)	> 100 µM (inactive)	> 100 µM (inactive)	> 100 µM (inactive)	
CN(C)/C=C/c1nnc([N+](=O)[O-])s1		22.8 µM (inactive)	32 µM (inactive)	16.8 µM (inactive)		14.5 µM (inactive)	8.79 µM (inactive)	4.22 µM (inactive)	15.2 µM (inactive)	16.4 µM (inactive)	< 0.01 µM (active)	12 µM (inactive)	14.6 µM (inactive)		15.3 µM (inactive)	17.7 µM (inactive)	7.73 µM (inactive)	2.17 µM (inactive)	20.5 µM (inactive)	
COC1(OC)CC(CO)(CNc2cc(Cl)nc(N)n2)C1	> 100 µM (inactive)	> 100 µM (inactive)		> 100 µM (inactive)	39.7 µM (inactive)	> 100 µM (inactive)	> 100 µM (inactive)	> 100 µM (inactive)	> 100 µM (inactive)	> 100 µM (inactive)	> 100 µM (inactive)	> 100 µM (inactive)		> 100 µM (inactive)	24.9 µM (inactive)	> 100 µM (inactive)	> 100 µM (inactive)	> 100 µM (inactive)	> 100 µM (inactive)	> 100 µM (inactive)
CC1=C(C(=O)N(C(C)C)C(C)C)CC(C(=O)N(C(C)C)C(C)C)=C(C)N1	> 100 µM (inactive)	> 100 µM (inactive)	35.8 µM (inactive)	> 100 µM (inactive)	> 100 µM (inactive)	> 100 µM (inactive)	> 100 µM (inactive)		> 100 µM (inactive)	> 100 µM (inactive)	> 100 µM (inactive)	> 100 µM (inactive)	> 100 µM (inactive)	> 100 µM (inactive)	49.3 µM (inactive)	> 100 µM (inactive)	> 100 µM (inactive)	> 100 µM (inactive)	> 100 µM (inactive)	
CCCNC(=O)c1cc(OC)c(OC)cc1NC(=O)C12CC3CC(CC(C3)C1)C2	20.2 µM (inactive)	19.7 µM (inactive)	15.1 µM (inactive)	> 100 µM (inactive)	18.2 µM (inactive)	19.8 µM (inactive)	22.2 µM (inactive)	17.8 µM (inactive)	21.2 µM (inactive)		32.4 µM (inactive)	40 µM (inactive)	15.2 µM (inactive)	31.9 µM (inactive)	17.5 µM (inactive)	17 µM (inactive)	17.6 µM (inactive)	22.2 µM (inactive)	25.2 µM (inactive)	
Cc1ccsc1/C=N/Nc1nncc2ccccc12	> 100 µM (inactive)	> 100 µM (inactive)	> 100 µM (inactive)	> 100 µM (inactive)	> 100 µM (inactive)	> 100 µM (inactive)			> 100 µM (inactive)	> 100 µM (inactive)	81.8 µM (inactive)	96.4 µM (inactive)	> 100 µM (inactive)	> 100 µM (inactive)	> 100 µM (inactive)	58.3 µM (inactive)	> 100 µM (inactive)	37 µM (inactive)	> 100 µM (inactive)	
O=C(Nc1ccc(S(=O)(=O)/N=c2\ncccn2C(=O)C(C(F)(F)F)C(F)(F)F)cc1)C(C(F)(F)F)C(F)(F)F	> 100 µM (inactive)	> 100 µM (inactive)	> 100 µM (inactive)		> 100 µM (inactive)	> 100 µM (inactive)	> 100 µM (inactive)	49.2 µM (inactive)	> 100 µM (inactive)	> 100 µM (inactive)	> 100 µM (inactive)	> 100 µM (inactive)	> 100 µM (inactive)	> 100 µM (inactive)	> 100 µM (inactive)	> 100 µM (inactive)	> 100 µM (inactive)	> 100 µM (inactive)	> 100 µM (inactive)	
COC(=O)[C@]1(C)CCC[C@]2(C)[C@@H](CCC(=O)C(C)C)[C@]3(C=O)O[C@@H]3C[C@H]21	> 100 µM (inactive)			47.6 µM (inactive)	44.8 µM (inactive)	41.6 µM (inactive)	74.6 µM (inactive)	53.1 µM (inactive)	39.4 µM (inactive)	50.2 µM (inactive)		31.1 µM (inactive)	32.1 µM (inactive)	27.9 µM (inactive)	21.8 µM (inactive)	33.7 µM (inactive)	34.3 µM (inactive)	33.4 µM (inactive)	60.1 µM (inactive)	30.7 µM (inactive)

Reference: ChEMBL document CHEMBL1201862, “PubChem BioAssay data set” (2004)
